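How tested: cells in 96-well plates exposed to compound for 48 hours at five concentrations. GI50 marks 50% less growth.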 Calls of active or inactive are those of the source. No stated cut-off is given here; in the data, active = GI50 up to about 1.1 µM and inactive = higher.
Tests used:
Experiment in all cases: inhibition of tumour cell growth, NCI panel, 48 h
HOP-18 = tested on: HOP-18
LOX IMVI = tested on: LOX IMVI
SNB-78 = tested on: SNB-78
TK-10 = tested on: TK-10
SK-MEL-2 = tested on: SK-MEL-2
IGROV-1 = tested on: IGROV-1
SW-620 = tested on: SW-620
COLO 205 = tested on: COLO 205
SF-295 = tested on: SF-295
M14 = tested on: M14
HCC 2998 = tested on: HCC 2998
RXF 393 = tested on: RXF 393
SNB-75 = tested on: SNB-75
SF-268 = tested on: SF-268
NCI-H522 = tested on: NCI-H522
SN12C = tested on: SN12C
UACC-257 = tested on: UACC-257
KM-20L2 = tested on: KM-20L2
SR = tested on: SR
DLD-1 = tested on: DLD-1
DMS-273 = tested on: DMS-273
NCI-H23 = tested on: NCI-H23
Malme-3M = tested on: Malme-3M
SF-539 = tested on: SF-539
SK-MEL-5 = tested on: SK-MEL-5
MDA-MB-231 = tested on: MDA-MB-231
HCT-116 = tested on: HCT-116
K562 = tested on: K562
SNB-19 = tested on: SNB-19
UACC-62 = tested on: UACC-62
MCF7 = tested on: MCF7
CAKI-1 = tested on: CAKI-1
RPMI-8226 = tested on: RPMI-8226
T47D = tested on: T47D
MDA-N = tested on: MDA-N
MOLT-4 = tested on: MOLT-4
NCI/ADR-RES = tested on: NCI/ADR-RES
A549 = tested on: A549
HOP-62 = tested on: HOP-62
OVCAR-8 = tested on: OVCAR-8
ACHN = tested on: ACHN
SK-OV-3 = tested on: SK-OV-3
A498 = tested on: A498
BT-549 = tested on: BT-549
Hs-578T = tested on: Hs-578T
HT-29 = tested on: HT-29
U-251 = tested on: U-251
HL-60 = tested on: HL-60
OVCAR-5 = tested on: OVCAR-5
EKVX = tested on: EKVX
HOP-92 = tested on: HOP-92
DU-145 = tested on: DU-145
CCRF-CEM = tested on: CCRF-CEM
SK-MEL-28 = tested on: SK-MEL-28
NCI-H226 = tested on: NCI-H226
786-0 = tested on: 786-0
HCT-15 = tested on: HCT-15
M19-MEL = tested on: M19-MEL
OVCAR-4 = tested on: OVCAR-4
MDA-MB-435 = tested on: MDA-MB-435
OVCAR-3 = tested on: OVCAR-3
PC-3 = tested on: PC-3
UO-31 = tested on: UO-31
XF498 = tested on: XF498
DMS-114 = tested on: DMS-114
NCI-H460 = tested on: NCI-H460
KM12 = tested on: KM12
LXFL 529 = tested on: LXFL 529

Measured: GI50

COC1=C(C)C(=O)C2=C(C1=O)C1C3CC4=C(C(=O)C(OC)=C(C)C4=O)C(CNC(=O)C(C)O)N3C(C#N)C(C2)N1C (stereo unspecified)
16.9 nM: HCT-15
inactive: NCI/ADR-RES 1460 nM
active: HOP-18 < 10 nM | LOX IMVI < 10 nM | SNB-78 < 10 nM | TK-10 35.3 nM | SK-MEL-2 < 10 nM | IGROV-1 < 10 nM | SW-620 < 10 nM | COLO 205 < 10 nM | SF-295 57.9 nM | M14 < 11.2 nM | HCC 2998 < 11.3 nM | RXF 393 < 12.1 nM | SNB-75 < 10.4 nM | SF-268 < 10 nM | NCI-H522 < 10 nM | SN12C < 10 nM | UACC-257 < 10 nM | KM-20L2 < 10 nM | SR < 10 nM | DLD-1 < 10 nM | DMS-273 < 10 nM | NCI-H23 < 17.8 nM | Malme-3M < 10 nM | SF-539 < 10 nM | SK-MEL-5 < 10 nM | MDA-MB-231 < 10 nM | HCT-116 46.5 nM | K562 < 10 nM | SNB-19 < 10 nM | UACC-62 < 10 nM | MCF7 < 10 nM | CAKI-1 37 nM | RPMI-8226 < 10 nM | T47D < 10 nM | MDA-N < 10 nM | MOLT-4 < 10 nM | A549 166 nM | HOP-62 14.9 nM | OVCAR-8 < 10 nM | ACHN 157 nM | SK-OV-3 67.3 nM | A498 10.7 nM | BT-549 < 10 nM | Hs-578T < 10 nM | HT-29 < 10 nM | U-251 < 10 nM | HL-60 < 10 nM | OVCAR-5 26.9 nM | EKVX 19.9 nM | HOP-92 < 10 nM | DU-145 16 nM | CCRF-CEM < 10 nM | SK-MEL-28 < 10 nM | NCI-H226 21.2 nM | 786-0 < 11.3 nM | M19-MEL < 10 nM | OVCAR-4 26 nM | MDA-MB-435 < 10 nM | OVCAR-3 < 10 nM | PC-3 < 11 nM | UO-31 101 nM | XF498 < 10 nM | DMS-114 < 10 nM | NCI-H460 15.9 nM | KM12 11.9 nM

Cc1ccc(-n2c(=S)[nH]c3ccc(Br)cc3c2=O)cc1
inactive: HOP-18 > 100000 nM | LOX IMVI > 100000 nM | TK-10 > 100000 nM | SK-MEL-2 > 100000 nM | IGROV-1 > 100000 nM | SW-620 > 100000 nM | COLO 205 > 100000 nM | SF-295 > 100000 nM | HCC 2998 > 100000 nM | RXF 393 > 100000 nM | SNB-75 > 100000 nM | SF-268 > 100000 nM | NCI-H522 > 100000 nM | SN12C > 100000 nM | UACC-257 > 100000 nM | KM-20L2 > 100000 nM | SR > 100000 nM | DLD-1 67900 nM | NCI-H23 > 100000 nM | Malme-3M > 100000 nM | SF-539 > 100000 nM | HCT-116 > 100000 nM | K562 > 100000 nM | SNB-19 > 100000 nM | RPMI-8226 > 100000 nM | MOLT-4 > 100000 nM | A549 > 100000 nM | HOP-62 > 100000 nM | OVCAR-8 > 100000 nM | ACHN > 100000 nM | A498 > 100000 nM | HT-29 > 100000 nM | U-251 > 100000 nM | HL-60 > 100000 nM | OVCAR-5 > 100000 nM | EKVX > 100000 nM | HOP-92 > 100000 nM | NCI-H226 > 100000 nM | 786-0 > 100000 nM | M19-MEL > 100000 nM | OVCAR-4 > 100000 nM | LXFL 529 > 100000 nM | OVCAR-3 > 100000 nM | UO-31 > 100000 nM | XF498 > 100000 nM | DMS-114 > 100000 nM | NCI-H460 > 100000 nM | KM12 > 100000 nM
> 100000 nM: HCT-15

From ChEMBL document CHEMBL1201862, “PubChem BioAssay data set” (2004)
